Results as given in patent publication US20060058310A1, “Remedies for vertebral canal stenosis” (priority 2002, published 2006).
Entries after “also recorded” stand apart in the source; their conditions may differ.

Tested on: rat of gait disturbance model by cauda equina compression
Experiment: Walking ability (treadmill) in rat gait disturbance model by cauda equina compression
Type: in vivo
Conditions: spinal canal stenosis model, administered orally for 11 days after the operation, vs negative control (carboxymethylcellulose or toragacanth gum), Dunnett's test, FIG. 1 and FIG. 2
Text: Improvement effect of this invented compound in a rat model of gait disturbance model by cauda equina compression:
<Method of Making an Animal Model>
A rat of gait disturbance model by cauda equina compression was made by the method of Takenobu et al. (J. Neurosci. Methods, 104(2), 191-198 (2002)). Namely, a rat was anesthetized by sodium pentobarbital, removed its dorsal hair and then was fixed its body in the prone position. After disinfection of the back with Chlorhexidine gluconate (5% Hibiten Liquid: Sumitomo Pharmaceuticals), the lumbar was incised along the midline to expose the spine. After excision of the fifth lumbar spinous process, silicon rubber 1×4×1.25 mm (height×length×width) were inserted into the fourth and the sixth lumbar spinal canals from small holes of vertebral arch which was made by mini-drill. […]
The rats were put on the running belt, and adapted to the condition where the grid was sent an electric current (0.04 mA-4 mA) for three minutes or more. […] The distance between the point to walk and the point to give up walk, in other words, the point where it is impossible for them to walk even though the stimulation (sound, contact and electricity) to make them walk was given, was measured with the mileometer built into the equipment. […] The results obtained from the compounds- and negative control-groups were analyzed by the Dunnett's multiple comparison test (*P<0.05). […]

Structure (SMILES): O=C1C[C@@]2(C(=O)N1)C(=O)N(Cc1ccc(Br)cc1F)C(=O)c1cccn12 [Compound B, (R)-2-(4-bromo-2-fluorobenzyl)spiro[1,2,3,4-tetrahydropyrrolo[1,2-a]pyrazine-4,3′-pyrrolidine]-1,2′,3,5′-tetrone]
- improvement of walking dysfunction (walking distance on treadmill): improved the pathology; also recorded: improved the walking dysfunction
